Laboratory results from patent US10144706B2 (BRISTOL-MYERS SQUIBB COMPANY, priority 2016, dated 2018).
Read-outs that look alike come from different tables or passages of the source.

Target: T1, PD-1/PD-L1 interaction (PD-1-Ig / PD-L1-His) (Homo sapiens, UniProt Q9NZQ7)
T1 construct: hPDL1(18-239)-TVMV-His; TVMV protease site linker (C); made in house; host or cells: HEK293T
Experiment: PD-1/PD-L1 Homogenous Time-Resolved Fluorescence (HTRF) binding assay
Conditions: PD-L1-His 10 nM, PD-1-Ig 20 nM, read-out: Range or IC50
Summary of the method: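 Human PD-L1-His (10 nM final) was pre-incubated with inhibitor for 15 min, then PD-1-Ig (20 nM final) was added for a further 15 min in dPBS with 0.1% BSA and 0.05% Tween-20. Binding was detected by HTRF using Eu-cryptate anti-Ig (1 nM) and APC anti-His (20 nM).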

T1 sequence (Q9NZQ7 with tags, fused parts or gaps): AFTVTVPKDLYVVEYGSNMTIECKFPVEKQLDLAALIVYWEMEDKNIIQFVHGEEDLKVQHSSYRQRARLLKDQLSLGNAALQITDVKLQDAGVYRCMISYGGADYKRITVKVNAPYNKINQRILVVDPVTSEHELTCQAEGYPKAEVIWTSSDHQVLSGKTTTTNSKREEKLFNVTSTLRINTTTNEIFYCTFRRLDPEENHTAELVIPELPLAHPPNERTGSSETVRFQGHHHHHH

IC50 (IC50 range class) [nM] | IC50 (numeric IC50) [nM] | SMILES
0.04 to 20 | – | CC(=O)c1cc(Cl)c(OCc2cccc(-c3cccc(COc4cc(OCc5cncc(C#N)c5)c(CNC(C)(CO)C(=O)O)cc4Cl)c3Cl)c2Cl)cc1OCc1cncc(C#N)c1 (stereo not shown) [Example 60060]
90.1 to 1000 | – | Cc1c(COc2cc(OCc3cncc(C#N)c3)c(CN3CCC[C@@H]3C(N)=O)cc2Cl)cccc1-c1cccc(COc2cc(OCc3cncc(C#N)c3)c(CN3CCC[C@@H]3C(N)=O)cc2Cl)c1C [Example 40690]
90.1 to 1000 | – | Cc1c(COc2cc(OCc3cc(F)cc(F)c3)c(CNC(CO)CO)cc2Cl)cccc1-c1cccc(COc2cc(OCc3cc(F)cc(F)c3)c(CNC(CO)CO)cc2Cl)c1C [Example 5003, 2,2′-((((((2,2′-dimethyl-[1,1′-biphenyl]-3,3′-diyl)bis(methylene))bis(oxy))bis(5-chloro-2-((3,5-difluorobenzyl)oxy)-4,1-phenylene))bis(methylene))bis(azanediyl))bis(propane-1,3-diol)]
20.1 to 90 | – | Cc1c(COc2cc(OCc3cncc(C#N)c3)c(Cl)cc2Cl)cccc1-c1cccc(COc2cc(OCc3cncc(C#N)c3)c(CN[C@@](C)(CO)C(=O)O)cc2Cl)c1C [Example 70060]
90.1 to 1000 | – | Cc1c(COc2cc(OCc3cncc(C#N)c3)c(CN[C@H](CC(=O)O)Cc3ccc(I)cc3)cc2Cl)cccc1-c1cccc(COc2cc(OCc3cncc(C#N)c3)c(CN[C@H](CC(=O)O)Cc3ccc(I)cc3)cc2Cl)c1C [Example 40530]
0.04 to 20 | – | Cc1c(COc2cc(OCc3cncc(C#N)c3)c(CN[C@@H](CCO)C(=O)O)cc2Cl)cccc1-c1cccc(COc2cc(OCc3cncc(C#N)c3)c(CN[C@@H](CCO)C(=O)O)cc2Cl)c1C [Example 40740]
0.04 to 20 | – | Cc1c(COc2cc(OCc3cc(F)cc(F)c3)c(CN(C)[C@@H](CC(C)C)C(=O)O)cc2Cl)cccc1-c1cccc(COc2cc(OCc3cc(F)cc(F)c3)c(CN(C)[C@@H](CC(C)C)C(=O)O)cc2Cl)c1C [Example 5017, (2S,2′S)-2,2′-((((((2,2′-dimethyl-[1,1′-biphenyl]-3,3′-diyl)bis(methylene))bis(oxy))bis(5-chloro-2-((3,5-difluorobenzyl)oxy)-4,1-phenylene))bis(methylene))bis(methylazanediyl))bis(4-methylpentanoic acid)]
20.1 to 90 | – | Cc1c(COc2cc(OCc3cncc(C#N)c3)c(Cl)cc2Cl)cccc1-c1cccc(COc2cc(OCc3cncc(C#N)c3)c(CNC(C)(CO)C(=O)O)cc2Cl)c1C (stereo not shown) [Example 70030]
90.1 to 1000 | – | N#Cc1cncc(COc2cc(OCc3cccc(-c4cccc(COc5cc(OCc6cncc(C#N)c6)c(C(=O)NC6COC6)cc5Cl)c4Cl)c3Cl)c(Cl)cc2C(=O)O)c1 [Example 90050]
0.04 to 20 | – | Cc1c(COc2cc(OCc3cncc(C(N)=O)c3)c(CN[C@@H](CCO)C(=O)O)cc2Cl)cccc1-c1cccc(COc2cc(OCc3cncc(C(N)=O)c3)c(CN[C@@H](CCO)C(=O)O)cc2Cl)c1C [Example 40870]
20.1 to 90 | – | Cc1cc(OCc2cccc(-c3cccc(COc4cc(C)c(CN5CCCC[C@H]5C(=O)O)cc4C)c3C)c2C)c(C)cc1CN1CCCC[C@H]1C(=O)O [Example 5002, (2S,2′S)-1,1′-(((((2,2′-dimethyl-[1,1′-biphenyl]-3,3′-diyl)bis(methylene))bis(oxy))bis(2,5-dimethyl-4,1-phenylene))bis(methylene))bis(piperidine-2-carboxylic acid)]
1000 to 10000 | – | Cc1c(OCCCN2CC[C@@H](O)C2)cccc1-c1cccc(OCc2cccc(N)c2)c1C [Example 3033, (R)-1-(3-((3′-((3-aminobenzyl)oxy)-2,2′-dimethyl-[1,1′-biphenyl]-3-yl)oxy)propyl)pyrrolidin-3-ol]
– | 22 | Cc1c(COc2cc(OCc3cncc(C#N)c3)c(CNC/C=C\C(=O)O)cc2Cl)cccc1-c1cccc(COc2cc(OCc3cncc(C#N)c3)c(CNC/C=C\C(=O)O)cc2Cl)c1C [Example 40730]
0.04 to 20 | – | N#Cc1cncc(COc2cc(OCc3cccc(-c4cccc(COc5cc(OCc6cncc(C#N)c6)c(CNC(CCO)C(=O)O)cc5Cl)c4Cl)c3Cl)c(Cl)cc2CNC(CCO)C(=O)O)c1 (stereo not shown) [Example 40170]
0.04 to 20 | – | Cc1c(COc2cc(OCc3cncc(C#N)c3)c(CNCCC(=O)O)cc2Cl)cccc1-c1cccc(COc2cc(OCc3cncc(C#N)c3)c(CNCCC(=O)O)cc2Cl)c1C [Example 40410]
90.1 to 1000 | – | Cc1c(OCCCN2CC[C@@H](O)C2)cccc1-c1cccc(OCCCN2CC[C@@H](O)C2)c1 [Example 3023, (3R,3′R)-1,1′-(((2-methyl-[1,1′-biphenyl]-3,3′-diyl)bis(oxy))bis(propane-3,1-diyl))bis(pyrrolidin-3-ol)]
20.1 to 90 | – | O[C@@H]1CCN(CCC2COc3ccc(-c4ccc5c(c4)OC(CCN4CC[C@@H](O)C4)CO5)cc3O2)C1 (stereo partly drawn) [Example 3032, (3R,3′R)-1,1′-((2,2′,3,3′-tetrahydro-[6,6′-bibenzo[b][1,4]dioxine]-3,3′-diyl)bis(ethane-2,1-diyl))bis(pyrrolidin-3-ol)]

Continued, compound first:

SMILES | IC50 (IC50 range class) [nM] | IC50 (numeric IC50) [nM]
Cc1c(OCCCN2CCN(c3ccccn3)CC2)cccc1-c1cccc(OCCCN2CC[C@@H](O)C2)c1C [Example 2108, (R)-1-(3-((2,2′-dimethyl-3′-(3-(4-(pyridin-2-yl)piperazin-1-yl)propoxy)-[1,1′-biphenyl]-3-yl)oxy)propyl)pyrrolidin-3-ol] | 90.1 to 1000 | –
Cc1c(COc2cc(OCc3cncc(C#N)c3)c(CO)cc2Cl)cccc1-c1cccc(COc2cc(OCc3cncc(C#N)c3)c(CNC(CO)CO)cc2Cl)c1C [Example 2129, 5-((4-chloro-5-((3′-((2-chloro-5-((5-cyanopyridin-3-yl)methoxy)-4-(((1,3-dihydroxypropan-2-yl)amino)methyl)phenoxy)methyl)-2,2′-dimethyl-[1,1′-biphenyl]-3-yl)methoxy)-2-(hydroxymethyl)phenoxy)methyl)nicotinonitrile] | 90.1 to 1000 | –
Cc1c(OCCCNCC(O)CO)cccc1-c1cccc(OCCCNCC(O)CO)c1C (mixture of isomers) [Example 2083, 3,3′-((((2,2′-dimethyl-[1,1′-biphenyl]-3,3′-diyl)bis(oxy))bis(propane-3,1-diyl))bis(azanediyl))bis(propane-1,2-diol)] | 0.04 to 20 | –
Cc1c(OCCCNCC(C)(O)CO)cccc1-c1cccc(OCCCNCC(C)(O)CO)c1C (mixture of isomers) [Example 2104, 3,3′-((((2,2′-dimethyl-[1,1′-biphenyl]-3,3′-diyl)bis(oxy))bis(propane-3,1-diyl))bis(azanediyl))bis(2-methylpropane-1,2-diol)] | 0.04 to 20 | –
Cc1c(OCCCNCCc2ccc(N)cc2)cccc1-c1cccc(OCCCN2CC[C@@H](O)C2)c1C [Example 2065, (R)-1-(3-((3′-(3-((4-aminophenethyl)amino)propoxy)-2,2′-dimethyl-[1,1′-biphenyl]-3-yl)oxy)propyl)pyrrolidin-3-ol] | 20.1 to 90 | –
Cc1c(OCCCNCCc2ccncc2)cccc1-c1cccc(OCCCN2CC[C@@H](O)C2)c1C [Example 2035, (R)-1-(3-((2,2′-dimethyl-3′-(3-((2-(pyridin-4-yl)ethyl)amino)propoxy)-[1,1′-biphenyl]-3-yl)oxy)propyl)pyrrolidin-3-ol] | 0.04 to 20 | –
Cc1c(OCCCN(C)CC(O)CO)cccc1-c1cccc(OCCCN2CC[C@@H](O)C2)c1C (mixture of isomers) [Example 2015, 3-((3-((3′-(3-((R)-3-hydroxypyrrolidin-1-yl)propoxy)-2,2′-dimethyl-[1,1′-biphenyl]-3-yl)oxy)propyl)(methyl)amino)propane-1,2-diol] | 20.1 to 90 | –
Cc1c(OCCCN(C)CCN(C)C)cccc1-c1cccc(OCCCN2CC[C@@H](O)C2)c1C [Example 2032, (R)-1-(3-((3′-(3-((2-(dimethylamino)ethyl)(methyl)amino)propoxy)-2,2′-dimethyl-[1,1′-biphenyl]-3-yl)oxy)propyl)pyrrolidin-3-ol] | 20.1 to 90 | –
O=C(NCCCOc1cccc(-c2cccc(OCCCNC(=O)C(O)CO)c2Cl)c1Cl)C(O)CO (stereo not shown) [Example 2135, N,N′-(((2,2′-dichloro-[1,1′-biphenyl]-3,3′-diyl)bis(oxy))bis(propane-3,1-diyl))bis(2,3-dihydroxypropanamide)] | 1000 to 10000 | –
Cc1c(OCCCNC[C@H](O)CO)cccc1-c1cccc(OCCCN2CC[C@@H](O)C2)c1C [Example 2011, (S)-3-((3-((3′-(3-((R)-3-hydroxypyrrolidin-1-yl)propoxy)-2,2′-dimethyl-[1,1′-biphenyl]-3-yl)oxy)propyl)amino)propane-1,2-diol] | 20.1 to 90 | –
Cc1c(OCCCN[C@H](CO)C(C)C)cccc1-c1cccc(OCCCN2CC[C@@H](O)C2)c1C [Example 2058, (R)-1-(3-((3′-(3-(((S)-1-hydroxy-3-methylbutan-2-yl)amino)propoxy)-2,2′-dimethyl-[1,1′-biphenyl]-3-yl)oxy)propyl)pyrrolidin-3-ol] | 90.1 to 1000 | –
Cc1c(OCCCN2CCN(CCO)CC2)cccc1-c1cccc(OCCCN2CCN(CCO)CC2)c1C [Example 2085, 2,2′-((((2,2′-dimethyl-[1,1′-biphenyl]-3,3′-diyl)bis(oxy))bis(propane-3,1-diyl))bis(piperazine-4,1-diyl))bis(ethan-1-ol)] | 90.1 to 1000 | –
Cc1c(OCCCN2CC[C@@H](O)C2)cccc1-c1cccc(OCCCN2CCC[C@@H](C(=O)O)C2)c1C [Example 2074, (R)-1-(3-((3′-(3-((R)-3-hydroxypyrrolidin-1-yl)propoxy)-2,2′-dimethyl-[1,1′-biphenyl]-3-yl)oxy)propyl)piperidine-3-carboxylic acid] | 90.1 to 1000 | –
Cc1c(OCCCN2CCN(CCO)CC2)cccc1-c1cccc(OCCCN2CC[C@@H](O)C2)c1C [Example 2063, (R)-1-(3-((3′-(3-(4-(2-hydroxyethyl)piperazin-1-yl)propoxy)-2,2′-dimethyl-[1,1′-biphenyl]-3-yl)oxy)propyl)pyrrolidin-3-ol] | 20.1 to 90 | –
